Data as given in patent US11629123B2, “Selenopsammaplin A and derivative thereof, preparation method therefor, and composition for preventing and treating cancer, containing same as active ingredients” (priority 2017, dated 2023).
“Also recorded” adds a separate entry of the source. Read-outs that look alike come from different tables or passages of the source.

Experiments:
Assay type in all cases: cell-based
[1] = system: colorectal cancer cell line HCT116; assay: cells; details: Homo sapiens
Procedure: (§1) To confirm the in vitro growth inhibitory efficacy of the samples prepared in Examples 1 to 28 against human lung cancer and colorectal cancer cell lines, the experiments were performed as follows by applying the method described in the literature (Lee S K et al ([…]) Chem Biol Interact 115:215-28). A human lung cancer cell line A549 and a colorectal cancer cell line HCT116 were acquired from the American Type Culture Collection (ATCC, Manassas, Va., USA) and used.
(§2) A549, HCT116 cells were subcultured once or twice weekly under conditions of 37° C. and 5% CO2 using Roswell Park Memorial Institute (RPMI) Medium 1640 (RPMI 1640) containing 10% heat-inactivated Fetal Bovine Serum (FBS), 100 units/mL penicillin, 100 μg/mL streptomycin, and 250 ng/mL amphotericin B. All cells were thawed from liquid nitrogen, subcultured three times or more, and then used in the experiment.
(§3) The effects of the compounds obtained in Examples 1 to 28 on cell growth were measured by a sulforhodamine B (SRB) method (Lee et al (1998) Chem Biol Interact 115: 215-28).
(§4) Specifically, the human lung cancer and colon cancer cell lines used in the present invention were subcultured in a RPMI medium containing 10% FBS, 1% PSF, and the like, 10 μl of a sample dissolved in 10% DMSO and 190 μl (5×10^4 cells/ml) of the cell suspension were placed in each well of a 96-well plate. 190 μl of the cell suspension was placed in at least 16 wells, cultured for 30 minutes, and used as a negative control (zero-day control) before the experiment. The cultured cells were fixed with 10% trichloroacetic acid (TCA) and then stained with an SRB solution, the staining solution was dissolved with 10 mM Tris-base, and absorbance was measured at 515 nm. Using the cell culture in 10% DMSO as a control, cell viability according to the treatment with each test sample was measured using the following Equation 1. % Cell viability=(OD(sample)−OD(0-day))/(OD(10% DMSO)−OD(0-day))×100 [Equation 1]
(§5) When the control in which the sample was not treated was defined as 100%, the value of the sample treatment group was shown as a percentage with respect to the control, and each test sample treatment was determined by the mean value±SEM of the duplicate or triplicate test. The IC50 value is the concentration of the test sample for 50% viability.

[2] = system: human lung cancer cell line A549; assay: cells; details: Homo sapiens
Procedure: as §1, §2, §3, §4, §5

[3] = system: human lung cancer and colorectal cancer cell lines; assay: In vitro growth inhibition (SRB), summary over both cell lines; details: compared with control compound etoposide
Procedure: as §1, §2, §3, §4, §5

[4] = HCT-116, read-out: HCT116-LC50, Table 2, SRB, concentration for 50% viability
[5] = A549, read-out: A549-LC50, Table 2, SRB, concentration for 50% viability

Row | Structure (SMILES) | CC50 ([1]; HCT-116, read-out: HCT116-LC50) [µM] | CC50 ([2]; A549, read-out: A549-LC50) [µM] | cancer cell growth inhibitory activity compared to etoposide [3] | CC50 [1, 4] [µM] | CC50 [2, 5] [µM]
1 | O=C(NCC[Se][Se]CCNC(=O)/C(Cc1ccc([N+](=O)[O-])cc1)=N/O)/C(Cc1ccc([N+](=O)[O-])cc1)=N/O [SSM-12, (2E,2′E)-N,N′-(diselanediylbis(ethane-2,1-diyl))bis(2-(hydroxyimino)-3-(4-nitrophenyl)propanamide)] | 0.09 | 0.09 | higher inhibitory activity than a control compound etoposide; also recorded: excellent cancer cell growth inhibitory potential even compared to etoposide |  | 
2 | CCOc1ccc(C/C(=N\O)C(=O)NCC[Se][Se]CCNC(=O)/C(Cc2ccc(OCC)cc2)=N/O)cc1 [SSM-10, (2E,2′E)-N,N′-(diselanediylbis(ethane-2,1-diyl))bis(3-(4-ethoxyphenyl)-2-(hydroxyimino)propanamide)] |  |  | higher inhibitory activity than a control compound etoposide; also recorded: excellent cancer cell growth inhibitory potential even compared to etoposide | 0.07 | 0.05
3 | O=C(NCC[Se][Se]CCNC(=O)/C(Cc1ccccc1)=N/O)/C(Cc1ccccc1)=N/O [SSM-4, (2E,2′E)-N,N′-(diselanediylbis(ethane-2,1-diyl))bis(2-(hydroxyimino)-3-phenylpropanamide)] | 0.09 | 0.08 | higher inhibitory activity than a control compound etoposide; also recorded: excellent cancer cell growth inhibitory potential even compared to etoposide |  | 
4 | O=C(NCC[Se][Se]CCNC(=O)/C(Cc1ccc(O)c(Br)c1)=N/O)/C(Cc1ccc(O)c(Br)c1)=N/O [SSM-1, (2E,2′E)-N,N′-(diselanediylbis(ethane-2,1-diyl))bis(3-(3-bromo-4-hydroxyphenyl)-2-(hydroxyimino)propanamide)] |  |  | higher inhibitory activity than a control compound etoposide; also recorded: excellent cancer cell growth inhibitory potential even compared to etoposide | 0.01 | 0.03
5 | O=C(NCC[Se][Se]CCNC(=O)/C(Cc1ccc(O)c(Cl)c1)=N/O)/C(Cc1ccc(O)c(Cl)c1)=N/O [SSM-2, (2E,2′E)-N,N′-(diselanediylbis(ethane-2,1-diyl))bis(3-(3-chloro-4-hydroxyphenyl)-2-(hydroxyimino)propanamide)] |  |  | higher inhibitory activity than a control compound etoposide; also recorded: excellent cancer cell growth inhibitory potential even compared to etoposide | 0.02 | 0.05
